Source: US8088763B2 (priority 2004, dated 2012)

Experiments:
[1] = target: T1, 5HT-uptake (Rattus norvegicus, UniProt P31652); assay: biochemical; settings: for inhibition at 10 µM: read-out: 5HT-uptake [10 μM], % inhibition
T1 construct: synaptosomes were freshly isolated from areas of rats' brains

[2] = target: NA-uptake (Rattus norvegicus, UniProt Q63380); assay: biochemical; settings: for inhibition at 10 µM: read-out: NA-uptake [10 μM], % inhibition
Sequence of NA-uptake (Q63380 1-617): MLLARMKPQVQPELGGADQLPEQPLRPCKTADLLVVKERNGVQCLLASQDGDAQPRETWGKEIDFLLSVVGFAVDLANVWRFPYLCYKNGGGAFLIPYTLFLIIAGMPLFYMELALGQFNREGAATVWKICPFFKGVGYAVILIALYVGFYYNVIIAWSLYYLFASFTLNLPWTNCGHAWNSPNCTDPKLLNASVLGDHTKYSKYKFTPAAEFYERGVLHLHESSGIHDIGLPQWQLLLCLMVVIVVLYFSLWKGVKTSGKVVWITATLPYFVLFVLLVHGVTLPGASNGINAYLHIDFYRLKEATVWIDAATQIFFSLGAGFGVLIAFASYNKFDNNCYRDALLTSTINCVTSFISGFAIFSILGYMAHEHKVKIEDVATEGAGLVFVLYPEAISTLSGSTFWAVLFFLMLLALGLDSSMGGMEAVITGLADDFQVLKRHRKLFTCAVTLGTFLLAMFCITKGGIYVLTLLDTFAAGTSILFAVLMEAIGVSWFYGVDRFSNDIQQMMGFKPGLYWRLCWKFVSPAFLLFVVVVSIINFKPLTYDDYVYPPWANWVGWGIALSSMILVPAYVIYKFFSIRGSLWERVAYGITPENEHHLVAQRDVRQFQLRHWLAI

T1 sequence (P31652 whole entry): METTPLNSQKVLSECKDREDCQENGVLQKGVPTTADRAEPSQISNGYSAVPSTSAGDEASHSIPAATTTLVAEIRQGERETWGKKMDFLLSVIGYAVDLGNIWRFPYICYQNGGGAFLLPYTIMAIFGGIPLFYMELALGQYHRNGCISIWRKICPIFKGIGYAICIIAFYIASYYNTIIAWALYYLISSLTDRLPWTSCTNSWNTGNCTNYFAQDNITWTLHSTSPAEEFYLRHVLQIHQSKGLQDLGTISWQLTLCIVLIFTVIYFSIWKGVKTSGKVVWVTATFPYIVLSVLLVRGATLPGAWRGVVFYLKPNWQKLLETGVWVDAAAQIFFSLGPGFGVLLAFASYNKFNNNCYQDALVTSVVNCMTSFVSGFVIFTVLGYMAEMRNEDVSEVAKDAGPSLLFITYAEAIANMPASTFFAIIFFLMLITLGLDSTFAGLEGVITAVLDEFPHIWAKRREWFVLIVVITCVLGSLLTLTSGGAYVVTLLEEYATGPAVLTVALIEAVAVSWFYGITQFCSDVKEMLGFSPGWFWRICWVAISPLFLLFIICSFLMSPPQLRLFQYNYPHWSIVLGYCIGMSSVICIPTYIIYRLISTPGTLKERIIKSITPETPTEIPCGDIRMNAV

Cc1cnc(C(=O)N2CCN(C(=O)CCC(=O)NC3CCC(Cc4cccc(Cl)c4)(N(C)C)CC3)CC2)cn1 (stereo not drawn) [Example 33, N-[4-(3-chloro-benzyl)-4-dimethylamino-cyclohexyl]-4-[4-(5-methyl-pyrazin-2-carbonyl)-piperazin-1-yl]-4-oxo-butyramide]
inhibition at 10 µM [1]: 95% | inhibition at 10 µM [2]: 99%

Cc1ccc(CC2(N(C)C)CCC(NC(=O)CCC(=O)N3CCN(C(=O)OC(C)(C)C)CC3)CC2)cc1 (stereo not drawn) [Example 28, 4-{3-[4-dimethylamino-4-(4-methyl-benzyl)-cyclohexylcarbamoyl]-propionyl}-piperazin-1-carboxylic acid-tert-butylester]
inhibition at 10 µM [1]: 92% | inhibition at 10 µM [2]: 81%

CC1CCN(C(=O)CCC(=O)NC2CCC(Cc3ccc(Cl)cc3)(N(C)C)CC2)CC1 (stereo not drawn) [Example 60, N-[4-(4-chloro-benzyl)-4-dimethylamino-cyclohexyl]-4-(4-methyl-piperidin-1-yl)-4-oxobutyramide]
inhibition at 10 µM [1]: 93% | inhibition at 10 µM [2]: 71%

CN(C)C1(Cc2cccc(Cl)c2)CCC(NC(=O)CCC(=O)N2CCc3[nH]c4ccc(F)cc4c3C2)CC1 (stereo not drawn) [Example 8, N-[4-(3-chloro-benzyl)-4-dimethylamino-cyclohexyl]-4-(8-fluoro-1,3,4,5-tetrahydro-pyrido[4,3-b]indol-2-yl)-4-oxo-butyramide]
inhibition at 10 µM [1]: 92% | inhibition at 10 µM [2]: 85%

CN(C)C1(Cc2ccc(Cl)cc2)CCC(NC(=O)CCC(=O)N2CC=CCC2)CC1 (stereo not drawn) [Example 5, N-[4-(4-chloro-benzyl)-4-dimethylamino-cyclohexyl]-4-(3,6-dihydro-2H-pyridin-1-yl)-4-oxo-butyramide]
inhibition at 10 µM [1]: 93% | inhibition at 10 µM [2]: 80%

Cc1cnc(C(=O)N2CCN(C(=O)CCCC(=O)NC3CCC(Cc4ccccc4)(N(C)C)CC3)CC2)cn1 (stereo not drawn) [Example 41, 5-[4-(5-methyl-pyrazin-2-carbonyl)-piperazin-1-yl]-5-oxo-valeric acid (4-benzyl-4-dimethylamino-cyclohexyl)-amide]
inhibition at 10 µM [1]: 92% | inhibition at 10 µM [2]: 90%

CN(C)C1(Cc2ccc(Cl)cc2)CCC(NC(=O)CCC(=O)N2CCSCC2)CC1 (stereo not drawn) [Example 13, N-[4-(4-chloro-benzyl)-4-dimethylamino-cyclohexyl]-4-oxo-4-thiomorpholin-4-yl-butyramide]
inhibition at 10 µM [1]: 92% | inhibition at 10 µM [2]: 72%

COc1ccc(OC)c(CN2CCN(C(=O)CCCC(=O)NC3CCC(Cc4ccccc4)(N(C)C)CC3)CC2)c1 (stereo not drawn) [Example 18, 5-[4-(2,5-dimethoxy-benzyl)-piperazin-1-yl]-5-oxo-valeric acid (4-benzyl-4-dimethylamino-cyclohexyl)-amide]
inhibition at 10 µM [1]: 94% | inhibition at 10 µM [2]: 84%

Cc1ccc(CC2(N(C)C)CCC(NC(=O)CCC(=O)N3CC=CCC3)CC2)cc1 (stereo not drawn) [Example 19, 4-(3,6-dihydro-2H-pyridin-1-yl)-N-[4-dimethylamino-4-(4-methyl-benzyl)-cyclohexyl]-4-oxo-butyramide]
inhibition at 10 µM [1]: 93% | inhibition at 10 µM [2]: 74%

CN(C)C1(Cc2ccc(Cl)cc2)CCC(NC(=O)CCC(=O)NCCc2cccc(F)c2)CC1 (stereo not drawn) [Example 88, N-[4-(4-chloro-benzyl)-4-dimethylamino-cyclohexyl]-N′-[2-(3-fluoro-phenyl)-ethyl]-succinamide]
inhibition at 10 µM [1]: 97% | inhibition at 10 µM [2]: 102%

COc1ccc(CNC(=O)CCC(=O)NC2CCC(Cc3cccc(C)c3)(N(C)C)CC2)cc1 (stereo not drawn) [Example 85, N-[4-dimethylamino-4-(3-methyl-benzyl)-cyclohexyl]-N′-(4-methoxy-benzyl)-succinamide]
inhibition at 10 µM [1]: 94% | inhibition at 10 µM [2]: 100%

CC(CCc1ccccc1)NC(=O)CCC(=O)NC1CCC(Cc2ccc(Cl)cc2)(N(C)C)CC1 (stereo not drawn) [Example 83, N-[4-(4-chloro-benzyl)-4-dimethylamino-cyclohexyl]-N′-(1-methyl-3-phenyl-propyl)-succinamide]
inhibition at 10 µM [1]: 93% | inhibition at 10 µM [2]: 105%

COc1cccc(N2CCN(C(=O)CCCC(=O)NC3CCC(Cc4ccccc4)(N(C)C)CC3)CC2)c1 (stereo not drawn) [Example 91, 5-[4-(3-methoxy-phenyl)-piperazin-1-yl]-5-oxo-valeric acid (4-benzyl-4-dimethylamino-cyclohexyl)-amide]
inhibition at 10 µM [1]: 92% | inhibition at 10 µM [2]: 101%

CCC(C)c1ccc(NC(=O)CCC(=O)NC2CCC(Cc3ccc(Cl)cc3)(N(C)C)CC2)cc1 (stereo not drawn) [Example 140, N-(4-sec-butyl-phenyl)-N′-[4-(4-chloro-benzyl)-4-dimethylamino-cyclohexyl]-succinamide]
inhibition at 10 µM [1]: 93% | inhibition at 10 µM [2]: 77%

CN(C)C1(Cc2ccc(Cl)cc2)CCC(NC(=O)CCC(=O)NCCc2c[nH]c3ccccc23)CC1 (stereo not drawn) [Example 52, N-[4-(4-chloro-benzyl)-4-dimethylamino-cyclohexyl]-N′-[2-(1H-indol-3-yl)-ethyl]-succinamide]
inhibition at 10 µM [1]: 96% | inhibition at 10 µM [2]: 88%

Cc1cccc(CC2(N(C)C)CCC(NC(=O)CCC(=O)NC(C)c3ccc4ccccc4c3)CC2)c1 (stereo not drawn) [Example 122, N-[4-dimethylamino-4-(3-methyl-benzyl)-cyclohexyl]-N′-(1-naphthalen-2-yl-ethyl)-succinamide]
inhibition at 10 µM [1]: 93% | inhibition at 10 µM [2]: 102%

CCOC(=O)C(C)NC(=O)CCC(=O)NC1CCC(Cc2ccc(Cl)cc2)(N(C)C)CC1 (stereo not drawn) [Example 7, 2-{3-[4-(4-chloro-benzyl)-4-dimethylamino-cyclohexylcarbamoyl]-propionylamino}-propanoic acid ethylester]
inhibition at 10 µM [1]: 93% | inhibition at 10 µM [2]: 91%

CN(CCc1c[nH]c2ccccc12)C(=O)CCC(=O)NC1CCC(Cc2cccc(Cl)c2)(N(C)C)CC1 (stereo not drawn) [Example 53, N-[4-(3-chloro-benzyl)-4-dimethylamino-cyclohexyl]-N′-[2-(1H-indol-3-yl)-ethyl]-N′-methyl-succinamide]
inhibition at 10 µM [1]: 93% | inhibition at 10 µM [2]: 94%

CN(C)C1(Cc2cccc(Cl)c2)CCC(NC(=O)CCC(=O)NCC2CCCO2)CC1 (stereo not drawn) [Example 29, N-[4-(3-chloro-benzyl)-4-dimethylamino-cyclohexyl]-N′-(tetrahydro-furan-2-ylmethyl)-succinamide]
inhibition at 10 µM [1]: 94% | inhibition at 10 µM [2]: 91%

COc1ccc(NC(=O)CCC(=O)NC2CCC(Cc3cccc(C)c3)(N(C)C)CC2)cc1 (stereo not drawn) [Example 75, N-[4-dimethylamino-4-(3-methyl-benzyl)-cyclohexyl]-N′-(4-methoxy-phenyl)-succinamide]
inhibition at 10 µM [1]: 97% | inhibition at 10 µM [2]: 99%

COc1ccc(CN2CCN(C(=O)CCC(=O)NC3CCC(Cc4cccc(C)c4)(N(C)C)CC3)CC2)cc1F (stereo not drawn) [Example 35, N-[4-dimethylamino-4-(3-methyl-benzyl)-cyclohexyl]-4-[4-(3-fluoro-4-methoxy-benzyl)-piperazin-1-yl]-4-oxo-butyramide]
inhibition at 10 µM [1]: 94% | inhibition at 10 µM [2]: 95%

Glutaric acid-(4-benzyl-4-dimethylamino- cyclohexyl)-amide 4-dimethylamino- benzylamide [Example 81]
5HT-uptake [10 μM], % inhibition [1]: 92% | NA-uptake [10 μM], % inhibition [2]: 91%

Cc1cccc(CC2(N(C)C)CCC(NC(=O)CCC(=O)N3CCC(C(=O)c4ccccc4)CC3)CC2)c1 (stereo not drawn) [Example 67, 4-(4-benzoyl-piperidin-1-yl)-N-[4-dimethylamino-4-(3-methyl-benzyl)-cyclohexyl]-4-oxo-butyramide]
inhibition at 10 µM [1]: 98% | inhibition at 10 µM [2]: 96%

COc1cc(CN2CCN(C(=O)CCC(=O)NC3CCC(Cc4ccc(C)cc4)(N(C)C)CC3)CC2)cc2c1OCO2 (stereo not drawn) [Example 4, N-[4-dimethylamino-4-(4-methyl-benzyl)-cyclohexyl]-4-[4-(7-methoxy-benzo[1,3]dioxol-5-ylmethyl)-piperazin-1-yl]-4-oxo-butyramide]
inhibition at 10 µM [1]: 92% | inhibition at 10 µM [2]: 89%

Cc1ccc(CC2(N(C)C)CCC(NC(=O)CCC(=O)N3CCN(c4cccc(C)c4C)CC3)CC2)cc1 (stereo not drawn) [Example 58, N-[4-dimethylamino-4-(4-methyl-benzyl)-cyclohexyl]-4-[4-(2,3-dimethyl-phenyl)-piperazin-1-yl]-4-oxo-butyramide]
inhibition at 10 µM [1]: 93% | inhibition at 10 µM [2]: 79%

CN(C)C1(Cc2ccc(Cl)cc2)CCC(NC(=O)CCC(=O)NCCC(c2ccccc2)c2ccccc2)CC1 (stereo not drawn) [Example 3, N-[4-(4-chloro-benzyl)-4-dimethylamino-cyclohexyl]-N′-(3,3-diphenyl-propyl)-succinamide]
inhibition at 10 µM [1]: 94% | inhibition at 10 µM [2]: 89%

COc1cccc(N2CCN(C(=O)CCC(=O)NC3CCC(Cc4cccc(C)c4)(N(C)C)CC3)CC2)c1 (stereo not drawn) [Example 48, N-[4-dimethylamino-4-(3-methyl-benzyl)-cyclohexyl]-4-[4-(3-methoxy-phenyl)-piperazin-1-yl]-4-oxo-butyramide]
inhibition at 10 µM [1]: 94% | inhibition at 10 µM [2]: 97%

CN(C)C1(Cc2ccc(Cl)cc2)CCC(NC(=O)CCC(=O)NC2CCN(Cc3ccc(C(F)(F)F)cc3)C2)CC1 (stereo not drawn) [Example 98, N-[4-(4-chloro-benzyl)-4-dimethylamino-cyclohexyl]-N′-[1-(4-trifluoromethyl-benzyl)-pyrrolidin-3-yl]-succinamide]
inhibition at 10 µM [1]: 92% | inhibition at 10 µM [2]: 74%

CCOc1ccc(N2CCN(C(=O)CCC(=O)NC3CCC(Cc4ccc(Cl)cc4)(N(C)C)CC3)CC2)cc1 (stereo not drawn) [Example 16, N-[4-(4-chloro-benzyl)-4-dimethylamino-cyclohexyl]-4-[4-(4-ethoxy-phenyl)-piperazin-1-yl]-4-oxo-butyramide]
inhibition at 10 µM [1]: 97% | inhibition at 10 µM [2]: 86%

CN(C)C1(Cc2cccc(Cl)c2)CCC(NC(=O)CCC(=O)N2CCC3(CC2)C(=O)NCN3c2ccccc2)CC1 (stereo not drawn) [Example 114, N-[4-(3-chloro-benzyl)-4-dimethylamino-cyclohexyl]-4-oxo-4-(4-oxo-1-phenyl-1,3,8-triaza-spiro[4.5]dec-8-yl)-butyramide]
inhibition at 10 µM [1]: 99% | inhibition at 10 µM [2]: 106%
